{"source": "patent US20240165104A1", "about": "“TREATMENT OF DEPRESSION” (priority 2021, published 2024)", "key": {"[1]": {"assay": "Solubility of the drug powder in water"}, "[2]": {"assay": "Plasma drug concentration cutoffs for treatment adherence", "conditions": "human, in vivo", "procedure": "(§1) In the patients of Example 1, plasma samples were collected after up to 6 weeks of treatment in the clinical trial (end of treatment visit) and analyzed.\n(§2) The selected drug concentration cutoffs approximate the lowest observed concentrations 24 hours after the last dose of the study drug under 100% adherent conditions. The 15 ng/mL threshold at 24 hours after the last dose corresponds to a plasma concentration of about 19 ng/mL at about 12 hours after a dose that is administered after steady state has been achieved (e.g., day 42)."}, "[3]": {"assay": "Pharmacokinetics after administration of the subject combination", "conditions": "for accumulation ratio at steady state based on AUC0-12 / accumulation ratio at steady state based on Cmax: given as the subject combination; for AUC0-12 of metabolite relative to that of bupropion / Cmax of metabolite relative to peak level of bupropion: after administration of the subject combination; for apparent elimination half-life (metabolites): in vivo"}, "[4]": {"system": "treatment-adherent patients with treatment-resistant depression", "assay": "Analysis of treatment-adherent patients of the Phase 3 trial (Example 2)", "conditions": "both, human, in vivo, 6 weeks", "procedure": "It was discovered in this study that measurement of plasma drug concentrations is a direct method of assessing treatment adherence.\nas §1, §2\nOther efficacy assessments included Quick Inventory Depressive Symptoms-Self Report (QIDS-SR-16), Hamilton Anxiety Rating Scale, and Cognition and Physical Functioning Questionnaire (CPFQ).\nDemographics and baseline characteristics were similar across both treatment groups."}, "[5]": {"system": "patients with treatment resistant depression (TRD)", "assay": "Phase 3 randomized double-blind active controlled trial of DM/BU in treatment resistant depression (Example 1)", "assay_type": "in vivo, human", "description": "Inclusion criteria for the open-label period included males or females 18-65 years of age, a history of inadequate response to 1 or 2 prior antidepressant treatments, established by the Antidepressant Treatment Response Questionnaire (ATRQ), and a Hamilton Depression Rating Scale (HAMD-17) total score of ≥18. Inclusion criteria for the double-blind period included inadequate response to 2 or 3 prior antidepressant treatments, including open-label period failure. Exclusion criteria included a history of electroconvulsive therapy, vagus nerve stimulation, transcranial magnetic stimulation or any experimental central nervous system treatment during the current episode or in the past 6 months, schizophrenia, bipolar disorder, obsessive compulsive disorder, psychiatric symptoms secondary to any other general medical condition.\nThe change in depressive symptoms over time was measured using the Montgomery-Åsberg Depression Rating Scale (MADRS) and the Quick Inventory of Depressive Symptomatology-Self-Rated (QIDS-SR-16). The primary endpoint was the change from baseline in the MADRS after 6 weeks of treatment. The key secondary endpoints were the change from baseline in the MADRS after 1 week of treatment, after 2 weeks of treatment, the average change over entire 6-week double-blind treatment period, and the Sheehan Disability Scale (SDS). Other pre-specified secondary efficacy variables included the Cognitive subscale of the Massachusetts General Hospital Cognitive and Physical Functioning Questionnaire (CPFQ), and the Hamilton Anxiety Scale (HAM-A)."}, "Plasma protein binding": {"assay": "Plasma protein binding", "assay_type": "in vitro ADME", "conditions": "plasma"}, "plasma protein": {"system": "plasma protein", "assay": "Plasma protein binding", "assay_type": "in vitro ADME", "conditions": "metabolites of bupropion"}, "[6]": {"conditions": "subject combination administered with food"}}, "note": "Structures can show the parent of a compound that is named as a salt. Where two headings read alike, the source gives them in different places."}
{"smiles": "COc1ccc2c(c1)[C@]13CCCC[C@@H]1[C@H](C2)N(C)CC3", "note": "[dextromethorphan, morphinan, 3-methoxy-17-methyl-, (9α, 13α, 14α), hydrobromide monohydrate]", "values": [{"measurement": "solubility in water", "setting": "[1]", "result": "sparingly soluble in water"}, {"measurement": "concentration at 12 h", "setting": "[2]; dose administered after steady state (e.g., day 42), read-out: corresponding plasma concentration at about 12 hours after a dose", "result": "~19", "unit": "ng/mL"}, {"measurement": "concentration at 24 h", "setting": "[2]; under 100% adherent conditions, read-out: plasma concentration cutoff approximating the lowest observed concentration 24 hours after the last dose", "result": "~15", "unit": "ng/mL"}, {"measurement": "increase of mean elimination half-life as compared to dextromethorphan given without bupropion", "setting": "[3]; following 8 days of the subject combination, extensive metabolizers", "result": "approximately 3 fold"}, {"measurement": "accumulation ratio at steady state based on AUC0-12", "setting": "[3]", "result": "about 32"}, {"measurement": "accumulation ratio at steady state based on Cmax", "setting": "[3]", "result": "about 20"}, {"measurement": "change of Cmax with food", "setting": "[3]; [6]", "result": "unchanged"}, {"measurement": "decrease of AUC0-12 with food", "setting": "[3]; [6]", "result": 14, "unit": "%"}]}
{"smiles": "C[C@H]1NC(C)(C)CO[C@]1(O)c1cccc(Cl)c1", "note": "[hydroxybupropion]", "values": [{"measurement": "AUC0-12 of metabolite relative to that of bupropion", "setting": "[3]", "result": "about 19 times"}, {"measurement": "Cmax of metabolite relative to peak level of bupropion", "setting": "[3]", "result": "approximately 14 times"}, {"measurement": "apparent elimination half-life (metabolites)", "setting": "[3]; human", "result": "approximately 35 hours"}]}
{"smiles": "CC(NC(C)(C)C)C(O)c1cccc(Cl)c1", "note": "(centres unmarked) [erythrohydroxybupropion]", "values": [{"measurement": "AUC0-12 of metabolite relative to that of bupropion", "setting": "[3]", "result": "about 1.2 times"}, {"measurement": "Cmax of metabolite relative to peak level of bupropion", "setting": "[3]", "result": "approximately equal to"}, {"measurement": "apparent elimination half-life (metabolites)", "setting": "[3]; human", "result": "~44", "unit": "h"}]}
{"smiles": "CC(NC(C)(C)C)C(=O)c1cccc(Cl)c1.Cl", "note": "(racemic) [bupropion, (±)-1-(3-chlorophenyl)-2-[(1,1-dimethylethyl)amino]-1-propanone hydrochloride]", "values": [{"measurement": "Blood pressure increased", "setting": "[4]", "result": "0 (0.0%)"}, {"measurement": "Dizziness", "setting": "[4]", "result": "0 (0.0%)"}, {"measurement": "Dry mouth", "setting": "[4]", "result": "3 (2.3%)"}, {"measurement": "Headache", "setting": "[4]", "result": "6 (4.5%)"}, {"measurement": "Nasopharyngitis", "setting": "[4]", "result": "0 (0.0%)"}, {"measurement": "Nausea", "setting": "[4]", "result": "2 (1.5%)"}, {"measurement": "Somnolence", "setting": "[4]", "result": "2 (1.5%)"}, {"measurement": "rate of discontinuation due to adverse events", "setting": "[4]", "result": 0.8, "unit": "%"}, {"measurement": "solubility in water", "setting": "[1]", "result": "highly soluble in water"}, {"measurement": "rate of remission from depression (QIDS-SR-16≤5) at Week 6", "setting": "[5]; % of patients, p=0.012", "result": 8.2, "unit": "%"}, {"measurement": "rate of discontinuation due to adverse events", "setting": "[5]; both, human, in vivo, 6 weeks", "result": 1.9, "unit": "%"}, {"measurement": "MADRS mean reduction averaged over the entire 6-week treatment period", "setting": "[5]; key secondary endpoint, DM/BU n=154, bupropion n=155, p=0.031", "result": 6.7}, {"measurement": "MADRS mean reduction at Week 1", "setting": "[5]; key secondary endpoint, p=0.02", "result": 3.6}, {"measurement": "MADRS mean reduction at Week 2", "setting": "[5]; key secondary endpoint, p=0.035", "result": 6.1}, {"measurement": "QIDS-SR-16 mean reduction averaged over the entire 6-week treatment period", "setting": "[5]; p=0.013", "result": 2.3}, {"measurement": "MADRS mean reduction at Week 6", "setting": "[5]; primary endpoint, p=0.117, did not reach statistical significance", "result": 9.4}, {"measurement": "concentration at 24 h", "setting": "[2]", "result": "~10", "unit": "ng/mL"}, {"measurement": "fraction unbound", "setting": "Plasma protein binding", "result": 0.16}, {"measurement": "accumulation ratio at steady state based on AUC0-12", "setting": "[3]", "result": 1.5}, {"measurement": "accumulation ratio at steady state based on Cmax", "setting": "[3]", "result": 1.1}, {"measurement": "Tmax", "setting": "[3]; human, plasma, oral", "result": "~2", "unit": "h"}, {"measurement": "increase of AUC0-12 with food", "setting": "[3]; [6]", "result": 6, "unit": "%"}, {"measurement": "increase of Cmax with food", "setting": "[3]; [6]", "result": 3, "unit": "%"}]}
{"smiles": "C[C@H](NC(C)(C)C)[C@@H](O)c1cccc(Cl)c1", "note": "[threohydroxybupropion]", "values": [{"measurement": "extent of protein binding compared with bupropion", "setting": "plasma protein", "result": "about half that seen with bupropion"}, {"measurement": "AUC0-12 of metabolite relative to that of bupropion", "setting": "[3]", "result": "about 7 times"}, {"measurement": "Cmax of metabolite relative to peak level of bupropion", "setting": "[3]", "result": "about 5 times"}, {"measurement": "apparent elimination half-life (metabolites)", "setting": "[3]; human", "result": "~33", "unit": "h"}]}
